This is an account of results in ChEMBL document CHEMBL3822432, “Antibacterial and anticancer activity of a series of novel peptides incorporating cyclic tetra-substituted C(α) amino acids” (Bioorg Med Chem, 2016).

Experiment [1] deals with Mycobacterium tuberculosis. Kind of experiment: Antibacterial activity against rifampin/isoniazid-resistant Mycobacterium tuberculosis CSU 45 SRI 1377 by two fold serial dilution method. Format: functional.
The test system of experiment [2] is Mycobacterium tuberculosis. Kind of experiment: Antibacterial activity against ofloxacin-resistant Mycobacterium tuberculosis by two fold serial dilution method. Type of experiment: functional.

≈ marks a conversion by molar mass, not a printed value. Non-standard residues stand in square brackets, D forms with d. Residues, ends and D or L forms follow the SMILES beside them. ξ: configuration not given here. Ac6c = NC1(C(=O)O)CCCCC1; Ac5c = NC1(C(=O)O)CCCC1; ξOrn = NCCCC(N)C(=O)O; ξDab = NCCC(N)C(=O)O; ξDap = NCC(N)C(=O)O

With `CC(=O)NCC(=O)N[C@@H](Cc1ccccc1)C(=O)NC1(C(=O)NCC(=O)NC2(C(=O)NC(CN)C(=O)NC3(C(=O)NCC(=O)NC4(C(=O)N[C@@H](Cc5ccccc5)C(=O)NC5(C(=O)NCC(=O)NC6(C(=O)NCC(=O)NC(CN)C(=O)NC7(C(=O)NC(CN)C(=O)NC(CN)C(=O)NC(CN)C(=O)NC(CN)C(N)=O)CCCCC7)CCCCC6)CCCCC5)CCCCC4)CCCCC3)CCCCC2)CCCCC1` (some centres undefined) (Ac-GF[Ac6c]G[Ac6c][ξDap][Ac6c]G[Ac6c]F[Ac6c]G[Ac6c]G[ξDap][Ac6c][ξDap][ξDap][ξDap][ξDap]-NH2), the MIC in experiment [1] and in experiment [2] was 49.3 µM (≈ 100 µg/mL) each time.

In the case of `CN[C@@H]1[C@H](O[C@H]2[C@H](O[C@H]3[C@H](O)[C@@H](O)[C@H](N=C(N)N)[C@@H](O)[C@@H]3N=C(N)N)O[C@@H](C)[C@]2(O)C=O)O[C@@H](CO)[C@H](O)[C@H]1O` [STREPTOMYCIN], the MIC – broadly, the lowest concentration that inhibits growth of the organism – was determined as 0.8 µM (≈ 0.465 µg/mL) in experiment [1] and 3.4 µM (≈ 1.98 µg/mL) in experiment [2].

`CC(=O)NCC(=O)N[C@@H](Cc1ccccc1)C(=O)NC1(C(=O)NCC(=O)NC2(C(=O)N[C@@H](CCCNC(=N)N)C(=O)NC3(C(=O)NCC(=O)NC4(C(=O)N[C@@H](Cc5ccccc5)C(=O)NC5(C(=O)NCC(=O)NC6(C(=O)NCC(=O)N[C@@H](CCCNC(=N)N)C(=O)NC7(C(=O)N[C@@H](CCCNC(=N)N)C(=O)N[C@@H](CCCNC(=N)N)C(=O)N[C@@H](CCCNC(=N)N)C(=O)N[C@@H](CCCNC(=N)N)C(N)=O)CCCC7)CCCC6)CCCC5)CCCC4)CCCC3)CCCC2)CCCC1` (Ac-GF[Ac5c]G[Ac5c]R[Ac5c]G[Ac5c]F[Ac5c]G[Ac5c]GR[Ac5c]RRRR-NH2): the MIC in experiment [1] and in experiment [2] was greater than 43 µM throughout.

As to `CC(=O)NCC(=O)N[C@@H](Cc1ccccc1)C(=O)NC1(C(=O)NCC(=O)NC2(C(=O)N[C@@H](CCCNC(=N)N)C(=O)NC3(C(=O)NCC(=O)NC4(C(=O)N[C@@H](Cc5ccccc5)C(=O)NC5(C(=O)NCC(=O)NC6(C(=O)NCC(=O)N[C@@H](CCCNC(=N)N)C(=O)NC7(C(=O)N[C@@H](CCCNC(=N)N)C(=O)N[C@@H](CCCNC(=N)N)C(=O)N[C@@H](CCCNC(=N)N)C(=O)N[C@@H](CCCNC(=N)N)C(N)=O)CCCCC7)CCCCC6)CCCCC5)CCCCC4)CCCCC3)CCCCC2)CCCCC1` (Ac-GF[Ac6c]G[Ac6c]R[Ac6c]G[Ac6c]F[Ac6c]G[Ac6c]GR[Ac6c]RRRR-NH2), the results for the MIC in experiment [1] and in experiment [2] were 10.2 µM (≈ 25 µg/mL) and 40.8 µM (≈ 99.9 µg/mL), respectively.

Regarding `CC(=O)NCC(=O)N[C@@H](Cc1ccccc1)C(=O)NC1(C(=O)NCC(=O)NC2(C(=O)N[C@@H](CCCCN)C(=O)NC3(C(=O)NCC(=O)NC4(C(=O)N[C@@H](Cc5ccccc5)C(=O)NC5(C(=O)NCC(=O)NC6(C(=O)NCC(=O)N[C@@H](CCCCN)C(=O)NC7(C(=O)N[C@@H](CCCCN)C(=O)N[C@@H](CCCCN)C(=O)N[C@@H](CCCCN)C(=O)N[C@@H](CCCCN)C(N)=O)CCCC7)CCCC6)CCCC5)CCCC4)CCCC3)CCCC2)CCCC1` (Ac-GF[Ac5c]G[Ac5c]K[Ac5c]G[Ac5c]F[Ac5c]G[Ac5c]GK[Ac5c]KKKK-NH2), the results for the MIC in experiment [1] and in experiment [2] were 11.4 µM (≈ 25 µg/mL) and 22.9 µM (≈ 49.9 µg/mL), respectively.

Regarding `CC(=O)NCC(=O)N[C@@H](Cc1ccccc1)C(=O)NC1(C(=O)NCC(=O)NC2(C(=O)NC(CCN)C(=O)NC3(C(=O)NCC(=O)NC4(C(=O)N[C@@H](Cc5ccccc5)C(=O)NC5(C(=O)NCC(=O)NC6(C(=O)NCC(=O)NC(CCN)C(=O)NC7(C(=O)NC(CCN)C(=O)NC(CCN)C(=O)NC(CCN)C(=O)NC(CCN)C(N)=O)CCCCC7)CCCCC6)CCCCC5)CCCCC4)CCCCC3)CCCCC2)CCCCC1` (some centres undefined) (Ac-GF[Ac6c]G[Ac6c][ξDab][Ac6c]G[Ac6c]F[Ac6c]G[Ac6c]G[ξDab][Ac6c][ξDab][ξDab][ξDab][ξDab]-NH2), the minimum inhibitory concentration (MIC) in experiment [1] and in experiment [2] was 25.6 µM (≈ 54.3 µg/mL) in each case.

With `CC(=O)NCC(=O)N[C@@H](Cc1ccccc1)C(=O)NC1(C(=O)NCC(=O)N2Cc3ccccc3CC2C(=O)N[C@H](CCCCN)C(=O)NC2(C(=O)NCC(=O)N3Cc4ccccc4CC3C(=O)N[C@H](Cc3ccccc3)C(=O)NC3(C(=O)NCC(=O)N4Cc5ccccc5CC4C(=O)NCC(=O)N[C@H](CCCCN)C(=O)N4Cc5ccccc5CC4C(=O)N[C@H](CCCCN)C(=O)N[C@H](CCCCN)C(=O)N[C@H](CCCCN)C(=O)N[C@H](CCCCN)C(N)=O)CCCCC3)CCCCC2)CCCCC1` (some centres undefined), the MIC in experiment [1] and in experiment [2] was 20.7 µM (≈ 50 µg/mL) throughout.

Consider `CC(=O)N[C@@H](CCCCN)C(=O)N[C@@H](CCCCN)C(=O)N[C@@H](CCCCN)C(=O)N[C@@H](CCCCN)C(=O)NCC(=O)N[C@@H](Cc1ccccc1)C(=O)NC1(C(=O)NCC(=O)NC2(C(=O)N[C@@H](CCCCN)C(=O)NC3(C(=O)NCC(=O)NC4(C(=O)N[C@@H](Cc5ccccc5)C(=O)NC5(C(=O)NCC(=O)NC6(C(=O)NCC(=O)N[C@@H](CCCCN)C(=O)NC7(C(N)=O)CCCCC7)CCCCC6)CCCCC5)CCCCC4)CCCCC3)CCCCC2)CCCCC1` (Ac-KKKKGF[Ac6c]G[Ac6c]K[Ac6c]G[Ac6c]F[Ac6c]G[Ac6c]GK[Ac6c]-NH2), for which the MIC in experiment [1] is 10.9 µM (≈ 25 µg/mL); in experiment [2], 5.47 µM (≈ 12.5 µg/mL).

Turning to `CC(=O)NCC(=O)N[C@H](Cc1ccccc1)C(=O)NC1(C(=O)NCC(=O)N2C(C(=O)N[C@@H](CCCCN)C(=O)NC3(C(=O)NCC(=O)N4C(C(=O)N[C@@H](Cc5ccccc5)C(=O)NC5(C(=O)NCC(=O)N6C(C(=O)NCC(=O)N[C@@H](CCCCN)C(=O)N7C(C(=O)N[C@H](CCCCN)C(=O)N[C@H](CCCCN)C(=O)N[C@H](CCCCN)C(=O)N[C@H](CCCCN)C(N)=O)CC8CCCCC87)CC7CCCCC76)CCCCC5)CC5CCCCC54)CCCCC3)CC3CCCCC32)CCCCC1` (stereo in doubt), the MIC in experiment [1] and in experiment [2] was 20.9 µM (≈ 50 µg/mL) each time.

For `CC(=O)NCC(=O)N[C@@H](Cc1ccccc1)C(=O)NC1(C(=O)NCC(=O)NC2(C(=O)NC(CCCN)C(=O)NC3(C(=O)NCC(=O)NC4(C(=O)N[C@@H](Cc5ccccc5)C(=O)NC5(C(=O)NCC(=O)NC6(C(=O)NCC(=O)NC(CCCN)C(=O)NC7(C(=O)NC(CCCN)C(=O)NC(CCCN)C(=O)NC(CCCN)C(=O)NC(CCCN)C(N)=O)CCCCC7)CCCCC6)CCCCC5)CCCCC4)CCCCC3)CCCCC2)CCCCC1` (some centres undefined) (Ac-GF[Ac6c]G[Ac6c][ξOrn][Ac6c]G[Ac6c]F[Ac6c]G[Ac6c]G[ξOrn][Ac6c][ξOrn][ξOrn][ξOrn][ξOrn]-NH2), the minimum inhibitory concentration (MIC) in experiment [1] and in experiment [2] was 11.4 µM (≈ 25 µg/mL) in each case.

For `CC(=O)NCC(=O)N[C@@H](Cc1ccccc1)C(=O)NC1(C(=O)NCC(=O)NC2(C(=O)N[C@@H](CCCCN)C(=O)N[C@@H](CCCCN)C(=O)NC3(C(=O)NCC(=O)NC4(C(=O)N[C@@H](Cc5ccccc5)C(=O)NC5(C(=O)NCC(=O)NC6(C(=O)NCC(=O)N[C@@H](CCCCN)C(=O)N[C@@H](CCCCN)C(=O)NC7(C(=O)N[C@@H](CCCCN)C(=O)N[C@@H](CCCCN)C(=O)N[C@@H](CCCCN)C(=O)N[C@@H](CCCCN)C(N)=O)CCCCC7)CCCCC6)CCCCC5)CCCCC4)CCCCC3)CCCCC2)CCCCC1` (Ac-GF[Ac6c]G[Ac6c]KK[Ac6c]G[Ac6c]F[Ac6c]G[Ac6c]GKK[Ac6c]KKKK-NH2), the MIC in experiment [1] and in experiment [2] was 4.92 µM (≈ 12.5 µg/mL) throughout.

As for `CC(=O)NCC(=O)N[C@@H](Cc1ccccc1)C(=O)NC1(C(=O)NCC(=O)NC2(C(=O)N[C@@H](CCCCN)C(=O)NC3(C(=O)NCC(=O)NC4(C(=O)N[C@@H](Cc5ccccc5)C(=O)NC5(C(=O)NCC(=O)NC6(C(=O)NCC(=O)N[C@@H](CCCCN)C(=O)NC7(C(=O)N[C@@H](CCCCN)C(=O)N[C@@H](CCCCN)C(=O)N[C@@H](CCCCN)C(=O)N[C@@H](CCCCN)C(N)=O)CCCC7)CCCCC6)CCCC5)CCCCC4)CCCC3)CCCCC2)CCCC1` (Ac-GF[Ac5c]G[Ac6c]K[Ac5c]G[Ac6c]F[Ac5c]G[Ac6c]GK[Ac5c]KKKK-NH2), the minimum inhibitory concentration (MIC) in experiment [1] and in experiment [2] was 11.2 µM (≈ 25 µg/mL) in each case.
